Experimental data taken from the supplement of paper PMC10307832.

Key:
Assay in all cases: relative viability (nuclei count vs DMSO), 5 days (fraction); higher = more cells survive
GW-2580 + Luminespib = compound: COC1=CC=C(C=C1)COC2=C(C=C(C=C2)CC3=CN=C(N=C3N)N)OC [GW-2580] + CCNC(=O)c1noc(-c2cc(C(C)C)c(O)cc2O)c1-c1ccc(CN2CCOCC2)cc1 [Luminespib] (partner 0.01 µM)
Summary of the method: (§1)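 A single step with final 0.05% Triton X-100, 1% formaldehyde and 1 ug/ml Hoechst fixed the cells and stained nuclei 5 days after treatment. Lung cancer cell lines in 1536-well plates had been treated by pin tool the day after seeding with one drug alone or a fixed anchor-drug dose plus five library-drug doses (not always all listed) in √10 steps, and nuclei were counted on 4× images. Relative viability is the ratio of nuclei in treated wells to nuclei in vehicle wells, taken as the median of duplicate plates.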

GW-2580 + Decitabine = compound: COC1=CC=C(C=C1)COC2=C(C=C(C=C2)CC3=CN=C(N=C3N)N)OC [GW-2580] + Nc1ncn([C@H]2C[C@H](O)[C@@H](CO)O2)c(=O)n1 [Decitabine] (partner 2 µM)
Summary of the method: as §1

GW-2580 + Pictilisib = compound: COC1=CC=C(C=C1)COC2=C(C=C(C=C2)CC3=CN=C(N=C3N)N)OC [GW-2580] + CS(=O)(=O)N1CCN(Cc2cc3nc(-c4cccc5[nH]ncc45)nc(N4CCOCC4)c3s2)CC1 [Pictilisib] (partner 1 µM)
Summary of the method: as §1

GW-2580 + Foretinib = compound: COC1=CC=C(C=C1)COC2=C(C=C(C=C2)CC3=CN=C(N=C3N)N)OC [GW-2580] + COc1cc2c(Oc3ccc(NC(=O)C4(C(=O)Nc5ccc(F)cc5)CC4)cc3F)ccnc2cc1OCCCN1CCOCC1 [Foretinib] (partner 0.25 µM)
Summary of the method: as §1

Fedratinib + Linsitinib = compound: Cc1cnc(Nc2ccc(OCCN3CCCC3)cc2)nc1Nc1cccc(S(=O)(=O)NC(C)(C)C)c1 [Fedratinib] + C[C@]1(O)C[C@@H](c2nc(-c3ccc4ccc(-c5ccccc5)nc4c3)c3c(N)nccn32)C1 [Linsitinib] (partner 1 µM)
Summary of the method: as §1

| Cell Line | relative viability (GW-2580 + Luminespib; first compound 0.08 µM) | relative viability (GW-2580 + Luminespib; first compound 0.8 µM) | relative viability (GW-2580 + Luminespib; first compound 2.53 µM) | relative viability (GW-2580 + Luminespib; first compound 8 µM) | relative viability (GW-2580 + Decitabine; first compound 0.08 µM) | relative viability (GW-2580 + Decitabine; first compound 0.8 µM) | relative viability (GW-2580 + Decitabine; first compound 2.53 µM) | relative viability (GW-2580 + Decitabine; first compound 8 µM) | relative viability (GW-2580 + Pictilisib; first compound 0.08 µM) | relative viability (GW-2580 + Pictilisib; first compound 0.8 µM) | relative viability (GW-2580 + Pictilisib; first compound 2.53 µM) | relative viability (GW-2580 + Pictilisib; first compound 8 µM) | relative viability (GW-2580 + Foretinib; first compound 0.08 µM) | relative viability (GW-2580 + Foretinib; first compound 0.8 µM) | relative viability (GW-2580 + Foretinib; first compound 2.53 µM) | relative viability (GW-2580 + Foretinib; first compound 8 µM) | relative viability (Fedratinib + Linsitinib; first compound 0.1 µM) | relative viability (Fedratinib + Linsitinib; first compound 0.3162 µM) | relative viability (Fedratinib + Linsitinib; first compound 1 µM) |
| --- | --- | --- | --- | --- | --- | --- | --- | --- | --- | --- | --- | --- | --- | --- | --- | --- | --- | --- | --- |
| NCI-H661 | 0.978 | 0.996 | 0.931 | 0.704 | 0.597 | 0.542 | 0.516 | 0.546 | 0.343 | 0.377 | 0.321 | 0.361 | 1.08 | 0.987 | 1.03 | 0.771 | 0.512 | 0.533 | 0.622 |
| HARA | 0.882 | 0.801 | 0.389 | 0.596 | 0.658 | 0.617 | 0.599 | 0.409 | 0.459 | 0.513 | 0.344 | 0.405 | 1.06 | 0.849 | 1.03 | 0.676 | 1.09 | 0.975 | 0.979 |
| NCI-H596 | 0.987 | 1.03 | 0.998 | 0.913 | 1.12 | 0.883 | 1.89 | 0.937 | 0.4 | 0.407 | 0.343 | 0.392 | 0.795 | 0.88 | 0.957 | 0.823 | 1.01 | 1.08 | 1.08 |
| NCI-H23 | 0.226 | 0.194 | 0.213 | 0.191 | 0.324 | 0.334 | 0.308 | 0.283 | 0.632 | 0.46 | 0.367 | 0.502 | 1.23 | 1.18 | 0.887 | 0.907 | 0.583 | 0.618 | 0.431 |
| LCLC-97TM1 | 0.771 | 0.728 | 0.799 | 0.694 | 0.241 | 0.224 | 0.213 | 0.209 | 0.197 |  | 0.159 | 0.181 | 1.01 | 0.961 | 1.01 | 0.884 | 0.151 | 0.192 | 0.203 |
| EPLC-272H | 0.274 | 0.204 |  | 0.243 | 0.391 | 0.366 |  | 0.368 | 0.254 | 0.36 | 0.267 | 0.262 | 0.73 | 0.766 |  | 0.605 | 1.45 | 0.983 | 0.993 |
| NCI-H1915 | 0.852 | 1.12 | 0.429 | 0.917 | 0.248 | 0.272 | 0.575 | 0.251 | 0.986 | 0.906 | 0.954 | 0.886 | 1.26 | 0.768 | 1.12 | 1.06 | 1.04 | 1.08 | 1.03 |
| NCI-H2405 | 0.727 | 0.604 | 0.671 | 0.586 | 0.739 | 0.766 | 0.746 | 0.729 | 0.432 | 0.505 | 0.319 | 0.529 | 1.04 | 1.08 | 0.963 | 0.958 | 0.704 | 0.962 | 0.702 |
| NCI-H322M | 0.868 | 0.887 | 0.805 | 0.903 | 0.73 | 0.816 | 0.611 | 0.489 | 0.493 | 0.534 | 0.501 | 0.531 | 1.02 | 1.06 | 0.924 | 0.979 | 0.95 | 0.939 | 0.799 |
| NCI-H1395 | 0.723 | 0.665 | 0.648 | 0.59 | 0.793 | 0.689 | 0.753 | 0.776 | 0.626 | 0.584 | 0.561 | 0.632 | 1.08 | 0.934 | 1 | 0.923 | 1.2 | 1.29 | 1.28 |
| NCI-H358 | 0.34 | 0.344 | 0.364 | 0.463 | 0.208 | 0.206 | 0.201 | 0.217 | 0.356 | 0.32 | 0.28 | 0.308 | 0.761 | 0.79 | 0.679 | 0.557 | 0.565 | 0.597 | 0.53 |
| NCI-H838 | 0.266 | 0.31 | 0.376 | 0.338 | 0.438 | 0.466 | 0.435 | 0.426 | 0.569 | 0.462 | 0.326 | 0.614 | 1.15 | 1.14 | 0.997 | 1.03 | 1.01 | 1.05 | 0.984 |
